Assay results published in ChEMBL document CHEMBL1129789, “Dopamine D3 and D4 receptor antagonists: synthesis and structure--activity relationships of (S)-(+)-N-(1-Benzyl-3-pyrrolidinyl)-5-chloro-4- [(cyclopropylcarbonyl) amino]-2-methoxybenzamide (YM-43611) and related compounds” (J Med Chem, 1996).

Key:
[1] = target: T1, 5-hydroxytryptamine receptor 1A (Rattus norvegicus, UniProt P19327); assay: Compound was tested for the Binding affinity against rat hippocampal 5-hydroxytryptamine 1A receptor by Radio ligand [3H]8-OH-DPAT binding assay.; assay type: tissue-based, Hippocampus
T1 sequence (P19327 whole entry): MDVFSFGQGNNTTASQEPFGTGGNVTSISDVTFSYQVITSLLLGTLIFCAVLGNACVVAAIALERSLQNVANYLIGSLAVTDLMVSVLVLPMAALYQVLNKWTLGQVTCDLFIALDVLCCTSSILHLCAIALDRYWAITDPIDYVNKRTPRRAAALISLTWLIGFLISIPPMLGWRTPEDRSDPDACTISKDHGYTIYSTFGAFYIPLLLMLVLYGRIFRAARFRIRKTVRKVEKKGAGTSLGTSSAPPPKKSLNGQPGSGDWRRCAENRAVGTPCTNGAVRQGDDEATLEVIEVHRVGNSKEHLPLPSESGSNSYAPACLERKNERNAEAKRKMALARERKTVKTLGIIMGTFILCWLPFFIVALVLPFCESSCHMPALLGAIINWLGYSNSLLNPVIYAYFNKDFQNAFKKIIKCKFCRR

D(4) dopamine receptor = target: T2, D(4) dopamine receptor (Homo sapiens, UniProt P21917); assay: biochemical
T2 sequence (P21917 whole entry): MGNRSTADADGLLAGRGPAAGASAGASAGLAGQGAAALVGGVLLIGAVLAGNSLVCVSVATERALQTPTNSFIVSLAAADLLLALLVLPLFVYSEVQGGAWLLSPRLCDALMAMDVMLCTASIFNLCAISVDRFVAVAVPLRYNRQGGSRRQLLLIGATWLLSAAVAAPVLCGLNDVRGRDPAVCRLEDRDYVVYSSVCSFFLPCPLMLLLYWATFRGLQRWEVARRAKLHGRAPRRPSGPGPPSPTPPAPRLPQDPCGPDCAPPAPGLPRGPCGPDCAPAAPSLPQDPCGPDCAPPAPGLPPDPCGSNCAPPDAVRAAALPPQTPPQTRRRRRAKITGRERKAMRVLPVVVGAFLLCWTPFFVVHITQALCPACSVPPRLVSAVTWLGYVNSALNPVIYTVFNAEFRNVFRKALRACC

Mus musculus = assay: Compound was tested for inhibition of Apomorphine induced climbing in Mice on subcutaneous administration; assay type: functional; conditions: sc
[2] = target: 5-hydroxytryptamine receptor 2A (Rattus norvegicus, UniProt P14842); assay: biochemical
Sequence of 5-hydroxytryptamine receptor 2A (P14842 whole entry): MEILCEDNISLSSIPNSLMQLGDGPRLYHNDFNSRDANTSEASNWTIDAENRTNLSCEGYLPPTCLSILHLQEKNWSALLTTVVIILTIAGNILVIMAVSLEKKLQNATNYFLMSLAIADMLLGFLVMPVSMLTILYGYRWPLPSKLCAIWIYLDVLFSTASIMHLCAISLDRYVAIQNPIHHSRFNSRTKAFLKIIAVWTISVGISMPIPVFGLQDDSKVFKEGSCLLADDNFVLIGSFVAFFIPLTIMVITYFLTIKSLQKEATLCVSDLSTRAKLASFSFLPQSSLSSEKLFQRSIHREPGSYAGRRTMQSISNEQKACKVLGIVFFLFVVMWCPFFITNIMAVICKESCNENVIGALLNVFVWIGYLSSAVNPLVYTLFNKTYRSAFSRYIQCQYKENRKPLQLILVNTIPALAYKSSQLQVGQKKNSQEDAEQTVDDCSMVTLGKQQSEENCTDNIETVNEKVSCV

[3] = target: T3, Muscarinic acetylcholine receptor M2 (Rattus norvegicus, UniProt P10980); assay: Compound was tested for the Binding affinity against rat heart Muscarinic acetylcholine receptor M2 by Radio ligand [3H]quinuclidinyl binding assay
T3 sequence (P10980 whole entry): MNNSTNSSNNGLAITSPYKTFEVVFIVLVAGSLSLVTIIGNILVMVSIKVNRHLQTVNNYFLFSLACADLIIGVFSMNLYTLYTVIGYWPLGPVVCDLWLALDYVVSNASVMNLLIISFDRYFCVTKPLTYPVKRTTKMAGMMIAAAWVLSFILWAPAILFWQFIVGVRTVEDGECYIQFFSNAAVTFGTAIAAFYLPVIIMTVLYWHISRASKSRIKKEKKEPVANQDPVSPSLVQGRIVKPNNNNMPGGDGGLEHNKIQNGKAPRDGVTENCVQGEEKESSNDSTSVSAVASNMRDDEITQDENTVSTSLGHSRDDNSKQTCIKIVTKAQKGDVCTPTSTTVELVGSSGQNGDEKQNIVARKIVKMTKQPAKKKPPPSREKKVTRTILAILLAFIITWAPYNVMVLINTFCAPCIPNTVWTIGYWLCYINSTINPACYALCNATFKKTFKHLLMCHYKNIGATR

D(1B) dopamine receptor = D(1B) dopamine receptor (Homo sapiens, UniProt P21918)
Sequence of D(1B) dopamine receptor (P21918 whole entry): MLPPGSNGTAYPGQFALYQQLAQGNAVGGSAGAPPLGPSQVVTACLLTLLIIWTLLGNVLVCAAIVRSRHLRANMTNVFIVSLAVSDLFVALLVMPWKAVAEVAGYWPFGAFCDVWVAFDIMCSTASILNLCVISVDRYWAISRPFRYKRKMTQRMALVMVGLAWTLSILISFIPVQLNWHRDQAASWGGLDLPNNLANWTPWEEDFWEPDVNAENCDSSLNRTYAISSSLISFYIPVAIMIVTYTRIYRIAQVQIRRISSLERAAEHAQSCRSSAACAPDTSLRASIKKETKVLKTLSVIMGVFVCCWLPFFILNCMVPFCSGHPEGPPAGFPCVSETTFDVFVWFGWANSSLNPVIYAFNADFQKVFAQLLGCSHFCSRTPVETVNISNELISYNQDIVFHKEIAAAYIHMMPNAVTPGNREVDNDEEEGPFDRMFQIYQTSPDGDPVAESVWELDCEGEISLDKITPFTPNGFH

[4] = target: T4, 5-hydroxytryptamine receptor 3A (Mus musculus, UniProt P23979)
T4 sequence (P23979 whole entry): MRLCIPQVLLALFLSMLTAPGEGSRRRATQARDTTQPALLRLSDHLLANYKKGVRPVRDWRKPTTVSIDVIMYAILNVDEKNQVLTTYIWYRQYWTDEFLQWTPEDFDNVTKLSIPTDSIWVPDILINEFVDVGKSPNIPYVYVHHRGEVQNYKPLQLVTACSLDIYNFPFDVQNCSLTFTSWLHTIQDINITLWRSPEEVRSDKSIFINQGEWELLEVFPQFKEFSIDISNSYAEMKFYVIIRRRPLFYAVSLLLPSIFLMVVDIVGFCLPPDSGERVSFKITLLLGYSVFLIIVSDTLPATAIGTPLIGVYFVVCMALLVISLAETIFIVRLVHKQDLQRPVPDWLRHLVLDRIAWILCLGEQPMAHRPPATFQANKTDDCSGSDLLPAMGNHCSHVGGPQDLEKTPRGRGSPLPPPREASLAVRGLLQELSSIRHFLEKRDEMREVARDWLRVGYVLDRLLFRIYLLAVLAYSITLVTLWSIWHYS

Adrenergic receptor beta = Adrenergic receptor beta (Rattus norvegicus, UniProt P18090+P10608+P26255); assay: Compound was tested for the Binding affinity against rat cortical Beta adrenergic receptor by Radio ligand [3H]dihydroalprenolol binding assay.; assay type: protein assay
D(1A) dopamine receptor = D(1A) dopamine receptor (Homo sapiens, UniProt P21728); assay: Compound was tested for the Binding affinity against Human cloned Dopamine receptor D1 by Radio ligand ([3H]SCH-23390) binding assay
Sequence of D(1A) dopamine receptor (P21728 whole entry): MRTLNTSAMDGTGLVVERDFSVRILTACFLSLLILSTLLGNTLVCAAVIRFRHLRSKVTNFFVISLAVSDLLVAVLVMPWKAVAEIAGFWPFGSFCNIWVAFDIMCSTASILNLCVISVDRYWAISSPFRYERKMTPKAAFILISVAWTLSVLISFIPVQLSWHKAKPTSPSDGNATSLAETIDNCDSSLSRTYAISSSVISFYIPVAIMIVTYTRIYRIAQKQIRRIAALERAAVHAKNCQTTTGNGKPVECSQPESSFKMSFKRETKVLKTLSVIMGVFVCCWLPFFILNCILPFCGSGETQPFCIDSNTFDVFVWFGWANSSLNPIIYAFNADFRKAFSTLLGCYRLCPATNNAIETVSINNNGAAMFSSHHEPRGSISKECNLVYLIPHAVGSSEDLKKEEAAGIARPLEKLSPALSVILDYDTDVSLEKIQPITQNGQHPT

D(3) dopamine receptor = D(3) dopamine receptor (Rattus norvegicus, UniProt P19020); assay: biochemical
Sequence of D(3) dopamine receptor (P19020 whole entry): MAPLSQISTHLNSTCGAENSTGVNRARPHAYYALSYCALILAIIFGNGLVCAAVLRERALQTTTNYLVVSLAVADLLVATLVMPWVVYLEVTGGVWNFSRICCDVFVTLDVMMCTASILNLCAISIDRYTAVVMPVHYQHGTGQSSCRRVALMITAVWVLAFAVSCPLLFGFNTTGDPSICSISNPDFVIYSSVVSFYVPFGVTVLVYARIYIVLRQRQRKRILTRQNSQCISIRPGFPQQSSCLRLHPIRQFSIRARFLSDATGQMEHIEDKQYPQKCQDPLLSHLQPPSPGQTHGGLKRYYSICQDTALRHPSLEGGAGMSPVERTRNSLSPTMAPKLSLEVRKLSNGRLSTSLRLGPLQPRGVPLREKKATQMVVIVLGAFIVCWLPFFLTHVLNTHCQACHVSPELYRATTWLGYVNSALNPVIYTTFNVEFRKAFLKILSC
Description: Binding affinity to rat Dopamine receptor D3 expressed in CHO cells was determined using [125 I] iodosulpride as radioligand

Histamine H1 receptor = Histamine H1 receptor (Rattus norvegicus, UniProt P31390); assay: Compound was tested for the Binding affinity against rat cortical H1 receptor by Radio ligand [3H]pyrilamine binding assay
Sequence of Histamine H1 receptor (P31390 whole entry): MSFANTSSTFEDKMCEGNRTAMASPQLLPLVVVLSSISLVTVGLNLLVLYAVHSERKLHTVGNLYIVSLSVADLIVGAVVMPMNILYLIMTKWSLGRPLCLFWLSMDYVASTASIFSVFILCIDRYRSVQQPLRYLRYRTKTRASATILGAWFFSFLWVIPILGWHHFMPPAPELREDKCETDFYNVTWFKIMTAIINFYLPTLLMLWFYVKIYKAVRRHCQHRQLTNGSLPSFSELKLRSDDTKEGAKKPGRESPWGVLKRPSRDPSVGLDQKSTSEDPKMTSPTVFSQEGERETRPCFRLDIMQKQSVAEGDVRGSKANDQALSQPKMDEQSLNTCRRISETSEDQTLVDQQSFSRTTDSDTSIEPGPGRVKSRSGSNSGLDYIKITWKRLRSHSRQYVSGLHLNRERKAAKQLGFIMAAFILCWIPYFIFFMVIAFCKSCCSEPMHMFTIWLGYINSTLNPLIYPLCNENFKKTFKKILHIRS

Structure (SMILES): COc1cc(NC(=O)C2CC2)c(Cl)cc1C(=O)N[C@H]1CCN(Cc2ccccc2)C1
- Ki [1]: > 10 µM
- Ki (D(4) dopamine receptor): 0.0021 µM
- ED50 (Mus musculus): 0.32 mg/kg
- Ki [2]: > 10 µM
- Ki [3]: 7.3 µM
- Ki (D(1B) dopamine receptor): > 10 µM
- Ki [4]: 4 µM
- Ki (Adrenergic receptor beta): > 10 µM
- Ki (D(1A) dopamine receptor): > 10 µM
- Ki (D(3) dopamine receptor): 0.021 µM
- Ki (Histamine H1 receptor): > 10 µM
